“And” between values parts separate entries of the source, which are not always exact repeats. Equal entries are not always repeated. Where two headings read alike, the source gives them in different places.
Key:
NCI 60 cancer cell lines = experiment: NCI anticancer screening over a panel of 60 cancer cells, single concentration 10 µM; format: cell-based, human; settings: Homo sapiens, read-out: % Growth Inhibition (GI %)
Procedure, shortened: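 Run under the NCI Compound Evaluation Branch protocol, each compound was tested once at 10 µM. The panel comprised 60 cancer cell lines of diverse tissue origin, including leukemia, lung, colon, CNS, renal, ovarian, breast and prostate.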

[1] = system: breast cancer (T47D) cell line; experiment: MTT antiproliferative assay, T-47D
Description: The median inhibitory concentration (IC50) and GI50 (average IC50) against the three cancer cell lines were calculated. See Appendix B.
Cells were cultured using DMEM (Invitrogen/Life Technologies) supplemented with 10% FBS (Hyclone,), 10 ug/ml of insulin (Sigma), and 1% penicillin-streptomycin. Plate cells (cells density 1.2 – 1.8 × 10,000 cells/well) in a volume of 100µl complete growth medium + 100 ul of the tested compound per well in a 96-well plate for 24 hours before the MTT assay. In atypical experiment, one hundred micro liters of serial 10-fold diluted sterile tested compounds were added to final concentrations of […] using culture media as negative control. After 24 h of culture incubation and supernatants discarded. HOP-92 lung, MOLT-4 leukemia, and T-47D breast cell lines were trypsinized and washed with Ca2/Mg2 free PBS (pH 7.2). we removed cultures from incubator into laminar flow hood or other sterile work area. […] Each test should include a blank containing complete medium without cells. […] Add reconstituted MTT in an amount equal to 10% of the culture medium volume. Return cultures to incubator for 2-4 hours depending on cell type and maximum cell density. […] Spectrophotometrically absorbance was measured at a wavelength of 570 nm. Measure the background absorbance of multiwell plates at 690 nm and subtract from the […] measurement. Results from all experiments were recorded and the percentage of viable cells was calculated.

[2] = system: leukemia (MOLT-4) cell line; experiment: MTT antiproliferative assay, MOLT-4; format: cell-based, human
Description: After 24 h of culture incubation and supernatants discarded.

normal cell line WI-38 = experiment: MTT cytotoxicity on normal cell line WI-38; settings: listed as STA

C/C(=N\Nc1ccc(C(=O)O)cc1)c1cnn(-c2cc(=O)[nH]c3ccc(Br)cc23)c1C [Compound 4j, (E)-4-(2-(1-(1-(6-bromo-2-oxo-1,2-dihydroquinolin-4-yl)-5-methyl-1H-pyrazol-4-yl)ethylidene)hydrazineyl)benzoic acid]
inhibition at 10 µM (NCI 60 cancer cell lines; 786-0, Renal cancer 786-0, 10 μM): < 5%
inhibition at 10 µM (NCI 60 cancer cell lines; A498, Renal cancer A498, 10 μM): < 5%
inhibition at 10 µM (NCI 60 cancer cell lines; A549, Non-small cell lung cancer A549/ATCC, 10 μM): < 5%
inhibition at 10 µM (NCI 60 cancer cell lines; ACHN, Renal cancer ACHN, 10 μM): < 5%
inhibition at 10 µM (NCI 60 cancer cell lines; BT-549, Breast cancer BT-549, 10 μM): < 5%
inhibition at 10 µM (NCI 60 cancer cell lines; CAKI-1, Renal cancer CAKI-1, 10 μM): 14.7%
inhibition at 10 µM (NCI 60 cancer cell lines; CCRF-CEM, Leukemia CCRF-CEM, 10 μM): < 5%
inhibition at 10 µM (NCI 60 cancer cell lines; COLO 205, Colon cancer COLO 205, 10 μM): < 5%
inhibition at 10 µM (NCI 60 cancer cell lines; DU-145, Prostate cancer DU-145, 10 μM): < 5%
inhibition at 10 µM (NCI 60 cancer cell lines; EKVX, Non-small cell lung cancer EKVX, 10 μM): 6.05%
inhibition at 10 µM (NCI 60 cancer cell lines; HCC 2998, Colon cancer HCC-2998, 10 μM): < 5%
inhibition at 10 µM (NCI 60 cancer cell lines; HCT-15, Colon cancer HCT-15, 10 μM): < 5%
inhibition at 10 µM (NCI 60 cancer cell lines; HCT-116, Colon cancer HCT-116, 10 μM): < 5%
inhibition at 10 µM (NCI 60 cancer cell lines; HL-60, Leukemia HL-60(TB), 10 μM): 7.02%
inhibition at 10 µM (NCI 60 cancer cell lines; HOP-62, Non-small cell lung cancer HOP-62, 10 μM): 5.55%
inhibition at 10 µM (NCI 60 cancer cell lines; HOP-92, Non-small cell lung cancer HOP-92, 10 μM): < 5%
inhibition at 10 µM (NCI 60 cancer cell lines; HT-29, Colon cancer HT29, 10 μM): < 5%
inhibition at 10 µM (NCI 60 cancer cell lines; Hs-578T, Breast cancer HS 578T, 10 μM): 11.7%
inhibition at 10 µM (NCI 60 cancer cell lines; IGROV-1, Ovarian cancer IGROV1, 10 μM): < 5%
inhibition at 10 µM (NCI 60 cancer cell lines; K562, Leukemia K-562, 10 μM): < 5%
inhibition at 10 µM (NCI 60 cancer cell lines; KM12, Colon cancer KM12, 10 μM): < 5%
inhibition at 10 µM (NCI 60 cancer cell lines; LOX IMVI, Melanoma LOX IMVI, 10 μM): < 5%
inhibition at 10 µM (NCI 60 cancer cell lines; Leukemia SR, 10 μM): 7.14%
inhibition at 10 µM (NCI 60 cancer cell lines; MCF7, Breast cancer MCF7, 10 μM): < 5%
inhibition at 10 µM (NCI 60 cancer cell lines; MDA-MB-231, Breast cancer MDA-MB-231/ATCC, 10 μM): 17%
inhibition at 10 µM (NCI 60 cancer cell lines; MDA-MB-435, Melanoma MDA-MB-435, 10 μM): < 5%
inhibition at 10 µM (NCI 60 cancer cell lines; MDA-MB-468, Breast cancer MDA-MB-468, 10 μM): < 5%
inhibition at 10 µM (NCI 60 cancer cell lines; MOLT-4, Leukemia MOLT-4, 10 μM): < 5%
inhibition at 10 µM (NCI 60 cancer cell lines; Melanoma M14, 10 μM): < 5%
inhibition at 10 µM (NCI 60 cancer cell lines; Melanoma MALM-3M, 10 μM): 14.4%
inhibition at 10 µM (NCI 60 cancer cell lines; NCI-H23, Non-small cell lung cancer NCI-H23, 10 μM): < 5%
inhibition at 10 µM (NCI 60 cancer cell lines; NCI-H226, Non-small cell lung cancer NCI-H226, 10 μM): 5.42%
inhibition at 10 µM (NCI 60 cancer cell lines; NCI-H322M, Non-small cell lung cancer NCI-H322M, 10 μM): < 5%
inhibition at 10 µM (NCI 60 cancer cell lines; NCI-H460, Non-small cell lung cancer NCI-H460, 10 μM): < 5%
inhibition at 10 µM (NCI 60 cancer cell lines; NCI-H522, Non-small cell lung cancer NCI-H522, 10 μM): < 5%
inhibition at 10 µM (NCI 60 cancer cell lines; NCI/ADR-RES, Ovarian cancer NCI/ADR-RES, 10 μM): < 5%
inhibition at 10 µM (NCI 60 cancer cell lines; OVCAR-3, Ovarian cancer OVCAR-3, 10 μM): < 5%
inhibition at 10 µM (NCI 60 cancer cell lines; OVCAR-4, Ovarian cancer OVCAR-4, 10 μM): < 5%
inhibition at 10 µM (NCI 60 cancer cell lines; OVCAR-5, Ovarian cancer OVCAR-5, 10 μM): < 5%
inhibition at 10 µM (NCI 60 cancer cell lines; OVCAR-8, Ovarian cancer OVCAR-8, 10 μM): < 5%
inhibition at 10 µM (NCI 60 cancer cell lines; Prostate cancer PC-3, 10 μM): < 5%
inhibition at 10 µM (NCI 60 cancer cell lines; RPMI-8226, Leukemia RPMI-8226, 10 μM): < 5%
inhibition at 10 µM (NCI 60 cancer cell lines; RXF 393, Renal cancer RXF 393, 10 μM): < 5%
inhibition at 10 µM (NCI 60 cancer cell lines; SF-268, CNS Cancer SF-268, 10 μM): < 5%
inhibition at 10 µM (NCI 60 cancer cell lines; SF-295, CNS Cancer SF-295, 10 μM): < 5%
inhibition at 10 µM (NCI 60 cancer cell lines; SF-539, CNS Cancer SF-539, 10 μM): 7.41%
inhibition at 10 µM (NCI 60 cancer cell lines; SK-MEL-2, Melanoma SK-MEL-2, 10 μM): < 5%
inhibition at 10 µM (NCI 60 cancer cell lines; SK-MEL-5, Melanoma SK-MEL-5, 10 μM): < 5%
inhibition at 10 µM (NCI 60 cancer cell lines; SK-MEL-28, Melanoma SK-MEL-28, 10 μM): < 5%
inhibition at 10 µM (NCI 60 cancer cell lines; SK-OV-3, Ovarian cancer SK-OV-3, 10 μM): 4.08%
inhibition at 10 µM (NCI 60 cancer cell lines; SN12C, Renal cancer SN12C, 10 μM): < 5%
inhibition at 10 µM (NCI 60 cancer cell lines; SNB-19, CNS Cancer SNB-19, 10 μM): < 5%
inhibition at 10 µM (NCI 60 cancer cell lines; SNB-75, CNS Cancer SNB-75, 10 μM): 17.2%
inhibition at 10 µM (NCI 60 cancer cell lines; SW-620, Colon cancer SW-620, 10 μM): < 5%
inhibition at 10 µM (NCI 60 cancer cell lines; T47D, Breast cancer T-47D, 10 μM): 7.76%
inhibition at 10 µM (NCI 60 cancer cell lines; TK-10, Renal cancer TK-10, 10 μM): < 5%
inhibition at 10 µM (NCI 60 cancer cell lines; U-251, CNS Cancer U251, 10 μM): < 5%
inhibition at 10 µM (NCI 60 cancer cell lines; UACC-62, Melanoma UACC-62, 10 μM): 6.6%
inhibition at 10 µM (NCI 60 cancer cell lines; UACC-257, Melanoma UACC-257, 10 μM): < 5%
inhibition at 10 µM (NCI 60 cancer cell lines; UO-31, Renal cancer UO-31, 10 μM): 39.3%

CN[C@@H]1C[C@H]2O[C@@](C)([C@@H]1OC)n1c3ccccc3c3c4c(c5c6ccccc6n2c5c31)C(=O)NC4 [Staurosporine, reference compound]
viability at 0.4 µM ([1]; Homo sapiens, T47D): 69%
viability at 6.3 µM ([1]; Homo sapiens, T47D, 6.3uM (log 0.796)): 45.9%
viability at 25 µM ([1]; Homo sapiens, T47D, 25uM (log 1.398)): 35%
viability at 100 µM ([1]; Homo sapiens, T47D, 100uM (log 2), MTT absorbance 450 nm): 29.6%
% viability ([1]; T47D, 1.6ug (log 0.193), listed as STA): 61.548% and 61.55%
% viability ([1]; human, 0.4 µM): 69.04%
% viability ([2]; MOLT-4, 0.4ug (log conc. -0.41), listed as STA): 72.582% and 72.58%
% viability ([2]; MOLT-4, 1.6ug (log conc. 0.193), listed as STA): 62.059% and 62.06%
% viability ([2]; MOLT-4, 6.3ug (log conc. 0.796)): 51.82%
% viability ([2]; MOLT-4, 25ug (log conc. 1.398)): 36.23%
% viability ([2]; MOLT-4, 100ug (log conc. 2)): 24.46%
% viability (normal cell line WI-38; WI38, 1.6uM (log conc. 0.19), 1.6 µM): 68.1%
% viability (normal cell line WI-38; WI38, 100uM (log conc. 2), 100 µM): 37.43%
